{"source": "patent US20080103199A1", "about": "“TREATMENT OF PERVASIVE DEVELOPMENTAL DISORDERS” (priority 2006, published 2008)", "key": {"[1]": {"system": "Crl:CD-1(ICR)BR albino mice", "experiment": "Isolation-induced aggression model in pairs of mice", "assay_type": "in vivo", "method": "The effects of test compound on the aggressive behavior of Crl:CD-1(ICR)BR albino mice were evaluated using the paradigm of isolation-induced aggression.\nMale Crl:CD-1(ICR)BR albino mice, fasted overnight, were individually housed for 5 weeks in plastic cages on wood-chip bedding. Subsequently, they were paired for 1 minute daily for several days by placing one individually housed mouse (intruder) into the resident cage of another individually housed mouse (resident). The 1-minute pairing of intruder and resident mouse elicits aggressive behavior. Pairs of mice showing consistent aggressive behavior when paired for 1 minute, during several days were selected as subjects for drug testing.\nTest compound (10 to 40 mg/kg p.o.) or the vehicle (methocel; aqueous 0.5%, w/v, hydroxypropyl methylcellulose solution) was administered (10 mL/kg) to the resident and intruder mouse. One and 4 hours after dosing, the mice were paired and the onset of fighting was recorded. […] The duration of fighting during a 1-minute test period was recorded. Mice were re-used in this procedure after several days to a week to allow metabolism and elimination of test compounds. The mice weighed 32 to 49 g at the time of testing and were fasted overnight before dosing. Mice were euthanized with CO2 if they were sick or injured.\nResults were expressed as the median onset of fighting and median duration of fighting in vehicle and drug-treated groups. The statistical significance of an increase in the median onset or a reduction in the median duration of fighting in pairs of mice given test compound or its vehicle 1 and 4 hours after administration was determined using the nonparametric Wilcoxon test (p<0.05, 1-tailed)."}, "male mice": {"system": "male mice", "experiment": "General behavior of male mice, visual observation using a checklist of behaviors;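 also: oral administration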", "assay_type": "in vivo", "settings": "N = 3/group", "method": "The effects of test compound on general behavior were evaluated by visual observation using a checklist of behaviors."}}, "data": [{"compound": "NC(=O)OC[C@@H](O)c1ccccc1Cl", "note": "[COMPOUND #7]", "values": [{"measurement": "Onset for initiation of fighting compared to vehicle-treated group", "setting": "[1]; 20 mg/kg p.o., 4 hours after administration", "result": "statistically significantly shorter"}, {"measurement": "Effect on isolation-induced aggressive behavior", "setting": "[1]; 40 mg/kg p.o., 1 hour after administration, vs vehicle (p<0.05)", "result": "inhibited isolation-induced aggressive behavior"}, {"measurement": "Effect on median duration of fighting compared to vehicle-treated groups", "setting": "[1]; any dose group (10 to 40 mg/kg p.o.), 4 hours after administration", "result": "not affected"}, {"measurement": "Number of Mice Affected: Decreased Open Field Activity", "setting": "male mice; 40 mg/kg p.o., 1 h", "result": 0}, {"measurement": "Number of Mice Affected: Decreased Startle Reflex", "setting": "male mice; 40 mg/kg p.o., 1 h", "result": 0}, {"measurement": "Number of Mice Affected: Extensor Limb Tone (hind limb)", "setting": "male mice; 40 mg/kg p.o., 1 h", "result": 0}, {"measurement": "Number of Mice Affected: Impaired Horizontal Screen Performance", "setting": "male mice; 40 mg/kg p.o., 1 h", "result": 0}, {"measurement": "Number of Mice Affected: Impaired Visual Placing Reflex", "setting": "male mice; 40 mg/kg p.o., 1 h", "result": 0}, {"measurement": "Number of Mice Affected: Locomotor Ataxia", "setting": "male mice; 40 mg/kg p.o., 1 h", "result": 0}, {"measurement": "Number of Mice Affected: Loss of Corneal Reflex", "setting": "male mice; 40 mg/kg p.o., 1 h", "result": 0}, {"measurement": "Number of Mice Affected: Loss of Pinnal Reflex", "setting": "male mice; 40 mg/kg p.o., 1 h", "result": 0}, {"measurement": "Number of Mice Affected: Loss of Righting Reflex", "setting": "male mice; 40 mg/kg p.o., 1 h", "result": 0}, {"measurement": "Number of Mice Affected: Passive Response to Handling", "setting": "male mice; 40 mg/kg p.o., 1 h", "result": 0}, {"measurement": "Number of Mice Affected: Reduced Skin Plasticity", "setting": "male mice; 40 mg/kg p.o., 1 h", "result": 0}, {"measurement": "Number of Mice Affected: Soft Body Tone", "setting": "male mice; 40 mg/kg p.o., 1 h", "result": 0}, {"measurement": "Number of Mice Affected: Tail Pinch Response, Absent", "setting": "male mice; 40 mg/kg p.o., 1 h", "result": 0}, {"measurement": "Number of Mice Affected: Decreased Open Field Activity", "setting": "male mice; 40 mg/kg p.o., 4 h", "result": 0}, {"measurement": "Number of Mice Affected: Decreased Startle Reflex", "setting": "male mice; 40 mg/kg p.o., 4 h", "result": 0}, {"measurement": "Number of Mice Affected: Extensor Limb Tone (hind limb)", "setting": "male mice; 40 mg/kg p.o., 4 h", "result": 0}, {"measurement": "Number of Mice Affected: Impaired Horizontal Screen Performance", "setting": "male mice; 40 mg/kg p.o., 4 h", "result": 0}, {"measurement": "Number of Mice Affected: Impaired Visual Placing Reflex", "setting": "male mice; 40 mg/kg p.o., 4 h", "result": 0}, {"measurement": "Number of Mice Affected: Locomotor Ataxia", "setting": "male mice; 40 mg/kg p.o., 4 h", "result": 0}, {"measurement": "Number of Mice Affected: Loss of Corneal Reflex", "setting": "male mice; 40 mg/kg p.o., 4 h", "result": 0}, {"measurement": "Number of Mice Affected: Loss of Pinnal Reflex", "setting": "male mice; 40 mg/kg p.o., 4 h", "result": 0}, {"measurement": "Number of Mice Affected: Loss of Righting Reflex", "setting": "male mice; 40 mg/kg p.o., 4 h", "result": 0}, {"measurement": "Number of Mice Affected: Passive Response to Handling", "setting": "male mice; 40 mg/kg p.o., 4 h", "result": 0}, {"measurement": "Number of Mice Affected: Reduced Skin Plasticity", "setting": "male mice; 40 mg/kg p.o., 4 h", "result": 0}, {"measurement": "Number of Mice Affected: Soft Body Tone", "setting": "male mice; 40 mg/kg p.o., 4 h", "result": 0}, {"measurement": "Number of Mice Affected: Tail Pinch Response, Absent", "setting": "male mice; 40 mg/kg p.o., 4 h", "result": 0}, {"measurement": "Number of Mice Affected: Decreased Open Field Activity", "setting": "male mice; 100 mg/kg p.o., 1 h", "result": 0}, {"measurement": "Number of Mice Affected: Decreased Startle Reflex", "setting": "male mice; 100 mg/kg p.o., 1 h", "result": 0}, {"measurement": "Number of Mice Affected: Extensor Limb Tone (hind limb)", "setting": "male mice; 100 mg/kg p.o., 1 h", "result": 0}, {"measurement": "Number of Mice Affected: Impaired Horizontal Screen Performance", "setting": "male mice; 100 mg/kg p.o., 1 h", "result": 0}, {"measurement": "Number of Mice Affected: Impaired Visual Placing Reflex", "setting": "male mice; 100 mg/kg p.o., 1 h", "result": 0}, {"measurement": "Number of Mice Affected: Locomotor Ataxia", "setting": "male mice; 100 mg/kg p.o., 1 h", "result": 0}, {"measurement": "Number of Mice Affected: Loss of Corneal Reflex", "setting": "male mice; 100 mg/kg p.o., 1 h", "result": 0}, {"measurement": "Number of Mice Affected: Loss of Pinnal Reflex", "setting": "male mice; 100 mg/kg p.o., 1 h", "result": 0}, {"measurement": "Number of Mice Affected: Loss of Righting Reflex", "setting": "male mice; 100 mg/kg p.o., 1 h", "result": 0}, {"measurement": "Number of Mice Affected: Passive Response to Handling", "setting": "male mice; 100 mg/kg p.o., 1 h", "result": 0}, {"measurement": "Number of Mice Affected: Reduced Skin Plasticity", "setting": "male mice; 100 mg/kg p.o., 1 h", "result": 0}, {"measurement": "Number of Mice Affected: Soft Body Tone", "setting": "male mice; 100 mg/kg p.o., 1 h", "result": 0}, {"measurement": "Number of Mice Affected: Tail Pinch Response, Absent", "setting": "male mice; 100 mg/kg p.o., 1 h", "result": 0}, {"measurement": "Number of Mice Affected: Decreased Open Field Activity", "setting": "male mice; 100 mg/kg p.o., 4 h", "result": 0}]}]}
